# Literature values as cited in US20070154567A1, “Use of mercury to treat cancer” (priority 2006, published 2007).
# System: mammary and sarcoma tumor growth in seeded wounds
# Conditions: 0.2% w/v solution administered to the wound site, mice; cited from earlier work
structure (smiles),measurement,value
[Cl][Hg][Cl] [mercuric chloride],mammary and sarcoma tumor growth in seeded wounds,reduce
